From PubChem BioAssay AID1259407 (Chemical Carcinogenesis Research Information System (CCRIS), 2018)
Activity calls are given as the source filed them. No rule for the calls is given here.

Tested on: CCRIS mutagenicity, Ames/micronucleus/aberration tests
Assay: CCRIS mutagenicity studies
Settings: Test System: AMES SALMONELLA TYPHIMURIUM

Question: For `CCOP(=O)(NC(C)C)Oc1ccc(SC)c(C)c1` (stereo not given), which mutagenic call (Strain/Indicator: TA97, Metabolic Activation: HAMSTER, LIVER, S-9, AROCLOR 1254 (10%), Method: PREINCUBATION) is on record?
Answer: inactive; negative

Question: What about the mutagenic call (Strain/Indicator: TA97, Metabolic Activation: HAMSTER, LIVER, S-9, AROCLOR 1254 (30%), Method: PREINCUBATION) of the same compound?
Answer: inactive; negative

Question: What about the mutagenic call (Strain/Indicator: TA97, Metabolic Activation: NONE, Method: PREINCUBATION) of the same compound?
Answer: inactive; negative

Question: What about the mutagenic call (Strain/Indicator: TA97, Metabolic Activation: RAT, LIVER, S-9, AROCLOR 1254 (10 OR 30%), Method: PREINCUBATION) of the same compound?
Answer: inactive; negative

Question: What about the mutagenic call (Strain/Indicator: TA98, Metabolic Activation: HAMSTER, LIVER, S-9, AROCLOR 1254 (10%), Method: PREINCUBATION) of the same compound?
Answer: inactive; negative

Question: And the mutagenic call (Strain/Indicator: TA98, Metabolic Activation: HAMSTER, LIVER, S-9, AROCLOR 1254 (30%), Method: PREINCUBATION)?
Answer: inactive; negative

Question: And the mutagenic call (Strain/Indicator: TA98, Metabolic Activation: NONE, Method: PREINCUBATION)?
Answer: inactive; negative

Question: What about the mutagenic call (Strain/Indicator: TA98, Metabolic Activation: RAT, LIVER, S-9, AROCLOR 1254 (10 OR 30%), Method: PREINCUBATION) of the same compound?
Answer: inactive; negative

Question: And the mutagenic call (Strain/Indicator: TA100, Metabolic Activation: HAMSTER, LIVER, S-9, AROCLOR 1254 (10%), Method: PREINCUBATION)?
Answer: inactive; negative

Question: What about the mutagenic call (Strain/Indicator: TA100, Metabolic Activation: HAMSTER, LIVER, S-9, AROCLOR 1254 (30%), Method: PREINCUBATION) of the same compound?
Answer: inactive; negative

Question: What about the mutagenic call (Strain/Indicator: TA100, Metabolic Activation: NONE, Method: PREINCUBATION) of the same compound?
Answer: inactive; negative

Question: And the mutagenic call (Strain/Indicator: TA100, Metabolic Activation: RAT, LIVER, S-9, AROCLOR 1254 (10 OR 30%), Method: PREINCUBATION)?
Answer: inactive; negative

Question: And the mutagenic call (Strain/Indicator: TA1535, Metabolic Activation: HAMSTER, LIVER, S-9, AROCLOR 1254 (10%), Method: PREINCUBATION)?
Answer: inactive; negative

Question: What about the mutagenic call (Strain/Indicator: TA1535, Metabolic Activation: HAMSTER, LIVER, S-9, AROCLOR 1254 (30%), Method: PREINCUBATION) of the same compound?
Answer: inactive; negative

Question: What about the mutagenic call (Strain/Indicator: TA1535, Metabolic Activation: NONE, Method: PREINCUBATION) of the same compound?
Answer: inactive; negative

Question: And the mutagenic call (Strain/Indicator: TA1535, Metabolic Activation: RAT, LIVER, S-9, AROCLOR 1254 (10 OR 30%), Method: PREINCUBATION)?
Answer: inactive; negative

Question: How did the mutagenic call (Strain/Indicator: TA98, Metabolic Activation: NONE, Method: STANDARD PLATE) turn out when `CC(C)c1cc(N)c([N+](=O)[O-])cc1N` was run?
Answer: inactive; negative

Question: And the mutagenic call (Strain/Indicator: TA98, Metabolic Activation: RAT, LIVER, S-9, AROCLOR 1254, Method: STANDARD PLATE)?
Answer: active; positive

Question: What about the mutagenic call (Strain/Indicator: TA100, Metabolic Activation: NONE, Method: STANDARD PLATE) of the same compound?
Answer: inactive; negative

Question: What about the mutagenic call (Strain/Indicator: TA100, Metabolic Activation: RAT, LIVER, S-9, AROCLOR 1254, Method: STANDARD PLATE) of the same compound?
Answer: inactive; negative

Question: What about the mutagenic call (Strain/Indicator: TA1535, Metabolic Activation: NONE, Method: STANDARD PLATE) of the same compound?
Answer: inactive; negative

Question: What about the mutagenic call (Strain/Indicator: TA1535, Metabolic Activation: RAT, LIVER, S-9, AROCLOR 1254, Method: STANDARD PLATE) of the same compound?
Answer: inactive; negative

Question: And the mutagenic call (Strain/Indicator: TA1537, Metabolic Activation: NONE, Method: STANDARD PLATE)?
Answer: inactive; negative

Question: And the mutagenic call (Strain/Indicator: TA1537, Metabolic Activation: RAT, LIVER, S-9, AROCLOR 1254, Method: STANDARD PLATE)?
Answer: inactive; negative

Question: And the mutagenic call (Strain/Indicator: TA1538, Metabolic Activation: NONE, Method: STANDARD PLATE)?
Answer: inactive; negative

Question: What about the mutagenic call (Strain/Indicator: TA1538, Metabolic Activation: RAT, LIVER, S-9, AROCLOR 1254, Method: STANDARD PLATE) of the same compound?
Answer: active; positive

Question: `Nc1cc2c3c(cccc3c1)-c1ccccc1-2` was tested. Which mutagenic call (Strain/Indicator: TA98, Metabolic Activation: RAT, LIVER, S-9, AROCLOR 1254 (2 OR 4%), Method: STANDARD PLATE) did it give?
Answer: active; positive

Question: What about the mutagenic call (Strain/Indicator: TA100, Metabolic Activation: RAT, LIVER, S-9, AROCLOR 1254 (4%), Method: STANDARD PLATE) of the same compound?
Answer: active; positive

Question: What about the mutagenic call (Strain/Indicator: TA1535, Metabolic Activation: RAT, LIVER, S-9, AROCLOR 1254 (4%), Method: STANDARD PLATE) of the same compound?
Answer: active; positive

Question: What about the mutagenic call (Strain/Indicator: TA1537, Metabolic Activation: RAT, LIVER, S-9, AROCLOR 1254 (4%), Method: STANDARD PLATE) of the same compound?
Answer: active; positive
